Measurements published in US20100041089A1, “IMPROVED METHOD FOR DETECTING CHEMICAL […]” (priority 2006, published 2010).

Tested on: yeast genes (expressed mRNA)
Test: DNA chip measurement of expressed mRNA of yeast genes after culture with a toxic chemical substance
Format: cell-based, Saccharomyces cerevisiae S288C
Details: for level of expressed mRNA in the presence of chemical substance / level in the absence of chemical substance: cultured two hours with the chemical substance; for The level of expressed mRNA in the presence of chemical substance/The level of expressed mRNA in the absence of chemical substance: cultured two hours with substance
How it was run: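 Two-hour exposure of growing S. cerevisiae S288C (YPD, 25° C) to a sublethal toxicant preceded RNA isolation. Fluorescent cDNA was hybridized to a whole-genome array; a treated-to-untreated signal ratio of two or more was taken as significant.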

[Cl][Cd][Cl] [(2), CdCl2]
level of expressed mRNA in the presence of chemical substance / level in the absence of chemical substance (yeast gene YNL058C): 1.0 | level of expressed mRNA in the presence of chemical substance / level in the absence of chemical substance (yeast gene YNL063W): 1.9 | The level of expressed mRNA in the presence of chemical substance/The level of expressed mRNA in the absence of chemical substance (yeast gene YNL074C): 1.3 | The level of expressed mRNA in the presence of chemical substance/The level of expressed mRNA in the absence of chemical substance (yeast gene YNL092W): 1.4 | The level of expressed mRNA in the presence of chemical substance/The level of expressed mRNA in the absence of chemical substance (yeast gene YNL115C): 1.8 | The level of expressed mRNA in the presence of chemical substance/The level of expressed mRNA in the absence of chemical substance (yeast gene YNL156C): 1.2 | level of expressed mRNA in the presence of chemical substance / level in the absence of chemical substance (yeast gene YNL176C): 1.3 | level of expressed mRNA in the presence of chemical substance / level in the absence of chemical substance (yeast gene YNL194C): 0.7 | level of expressed mRNA in the presence of chemical substance / level in the absence of chemical substance (yeast gene YNL200C): 3.0 | The level of expressed mRNA in the presence of chemical substance/The level of expressed mRNA in the absence of chemical substance (yeast gene YNL234W): 1.1 | level of expressed mRNA in the presence of chemical substance / level in the absence of chemical substance (yeast gene YNL253W): 1.3 | level of expressed mRNA in the presence of chemical substance / level in the absence of chemical substance (yeast gene YNL276C): 13.1 | The level of expressed mRNA in the presence of chemical substance/The level of expressed mRNA in the absence of chemical substance (yeast gene YNL281W): 1.3 | The level of expressed mRNA in the presence of chemical substance/The level of expressed mRNA in the absence of chemical substance (yeast gene YNL305C): 2.2 | level of expressed mRNA in the presence of chemical substance / level in the absence of chemical substance (yeast gene YNR051C): 0.5 | The level of expressed mRNA in the presence of chemical substance/The level of expressed mRNA in the absence of chemical substance (yeast gene YNR068C): 1.5 | level of expressed mRNA in the presence of chemical substance / level in the absence of chemical substance (yeast gene YOL026C): 2.7 | The level of expressed mRNA in the presence of chemical substance/The level of expressed mRNA in the absence of chemical substance (yeast gene YOL032W): 0.8 | The level of expressed mRNA in the presence of chemical substance/The level of expressed mRNA in the absence of chemical substance (yeast gene YOL036W): 0.9 | The level of expressed mRNA in the presence of chemical substance/The level of expressed mRNA in the absence of chemical substance (yeast gene YOL047C): 1.1 | The level of expressed mRNA in the presence of chemical substance/The level of expressed mRNA in the absence of chemical substance (yeast gene YOL071W): 2.0 | The level of expressed mRNA in the presence of chemical substance/The level of expressed mRNA in the absence of chemical substance (yeast gene YOL082W): 1.6 | The level of expressed mRNA in the presence of chemical substance/The level of expressed mRNA in the absence of chemical substance (yeast gene YOL083W): 2.3 | The level of expressed mRNA in the presence of chemical substance/The level of expressed mRNA in the absence of chemical substance (yeast gene YOL117W): 1.1 | The level of expressed mRNA in the presence of chemical substance/The level of expressed mRNA in the absence of chemical substance (yeast gene YOL131W): 1.5 | The level of expressed mRNA in the presence of chemical substance/The level of expressed mRNA in the absence of chemical substance (yeast gene YOL150C): 3.7 | The level of expressed mRNA in the presence of chemical substance/The level of expressed mRNA in the absence of chemical substance (yeast gene YOL162W): 6.9 | The level of expressed mRNA in the presence of chemical substance/The level of expressed mRNA in the absence of chemical substance (yeast gene YOR019W): 1.2 | level of expressed mRNA in the presence of chemical substance / level in the absence of chemical substance (yeast gene YOR022C): 1.1 | level of expressed mRNA in the presence of chemical substance / level in the absence of chemical substance (yeast gene YOR087W): 1.0 | level of expressed mRNA in the presence of chemical substance / level in the absence of chemical substance (yeast gene YOR138C): 1.5 | The level of expressed mRNA in the presence of chemical substance/The level of expressed mRNA in the absence of chemical substance (yeast gene YOR197W): 1.0 | level of expressed mRNA in the presence of chemical substance / level in the absence of chemical substance (yeast gene YOR253W): 2.8 | level of expressed mRNA in the presence of chemical substance / level in the absence of chemical substance (yeast gene YOR267C): 0.7 | level of expressed mRNA in the presence of chemical substance / level in the absence of chemical substance (yeast gene YOR325W): 2.6 | level of expressed mRNA in the presence of chemical substance / level in the absence of chemical substance (yeast gene YPL005W): 1.0 | The level of expressed mRNA in the presence of chemical substance/The level of expressed mRNA in the absence of chemical substance (yeast gene YPL087W): 5.1 | level of expressed mRNA in the presence of chemical substance / level in the absence of chemical substance (yeast gene YPL150W): 0.9 | level of expressed mRNA in the presence of chemical substance / level in the absence of chemical substance (yeast gene YPL152W): 1.1 | level of expressed mRNA in the presence of chemical substance / level in the absence of chemical substance (yeast gene YPL168W): 1.5 | level of expressed mRNA in the presence of chemical substance / level in the absence of chemical substance (yeast gene YPL180W): 2.0 | level of expressed mRNA in the presence of chemical substance / level in the absence of chemical substance (yeast gene YPL188W): 1.2 | The level of expressed mRNA in the presence of chemical substance/The level of expressed mRNA in the absence of chemical substance (yeast gene YPL196W): 1.6 | The level of expressed mRNA in the presence of chemical substance/The level of expressed mRNA in the absence of chemical substance (yeast gene YPL206C): 2.9 | level of expressed mRNA in the presence of chemical substance / level in the absence of chemical substance (yeast gene YPL221W): 3.0 | The level of expressed mRNA in the presence of chemical substance/The level of expressed mRNA in the absence of chemical substance (yeast gene YPL222W): 3.5 | level of expressed mRNA in the presence of chemical substance / level in the absence of chemical substance (yeast gene YPL225W): 1.7 | The level of expressed mRNA in the presence of chemical substance/The level of expressed mRNA in the absence of chemical substance (yeast gene YPR023C): 1.4 | level of expressed mRNA in the presence of chemical substance / level in the absence of chemical substance (yeast gene YPR049C): 2.5 | level of expressed mRNA in the presence of chemical substance / level in the absence of chemical substance (yeast gene YPR146C): 1.6 | level of expressed mRNA in the presence of chemical substance / level in the absence of chemical substance (yeast gene YPR148C): 1.2 | The level of expressed mRNA in the presence of chemical substance/The level of expressed mRNA in the absence of chemical substance (yeast gene YPR151C): 2.0 | level of expressed mRNA in the presence of chemical substance / level in the absence of chemical substance (yeast gene YPR172W): 1.6
